The source of these data is patent US7332617B2, “Process for the preparation of docetaxel trihydrate” (Shanghai Desano Chemical Pharmaceutical Co., Ltd., priority 2003, dated 2008).

Structures are written as SMILES.

The conditions of data set [1]: according to Chinese patent 95193984.X; cited from earlier work.
The nature of data set [2]: stability test at 40° C., relative humidity 75%, 12 months. The format is physicochemical. The note with it: relative humidity of 75%. As for the experimental part: The experiment conditions for testing the stability are: under temperature of 40° C., at relative humidity of 75%, 12 months. Within this period, the trihydrate compound remain no change.
Data set [3] can be described thus: stability in high temperature. The format is physicochemical. As for the experimental part: 2. Lower operation temperature (below 40° C.). As Docetaxel's stability is bad in high temperature, this will help to avoid any purity drop of Docetaxel in purification process.
The test system of data set [4] is transferring breast cancer. The settings on record: cited from earlier work.
Data set [5] in a line: exposure in light (purity). In kind it is physicochemical. The note with it: exposed in light for 10 hours. From the text:
It is sensitive to light in some way. Shortening of the filtration time decreased the exposure time, thus the reduction of purity was avoided.

With `CC(=O)O[C@@]12CO[C@@H]1C[C@H](O)[C@@]1(C)C(=O)[C@H](O)C3=C(C)[C@@H](OC(=O)[C@H](O)[C@@H](NC(=O)OC(C)(C)C)c4ccccc4)C[C@@](O)([C@@H](OC(=O)c4ccccc4)[C@H]21)C3(C)C` [Docetaxel trihydrate, (2′R,3′S)-N-carboxy-3-phenylisoserine, N-tert-butyl ester, 13-ester with 5β,20-epoxy-1β,2α,4α,7β,10β,13α-hexahydroxytax-11-en-9-one 4-acetate-2-benzoate, trihydrate], the “stability compared with anhydrous compound” value in data set [1] is given as “more stable than its anhydrous compound”. Further, the stability result in data set [2] was “no change”.
`CC(=O)O[C@@]12CO[C@@H]1C[C@H](O)[C@@]1(C)C(=O)[C@H](O)C3=C(C)[C@@H](OC(=O)[C@H](O)[C@@H](NC(=O)OC(C)(C)C)c4ccccc4)C[C@@](O)([C@@H](OC(=O)c4ccccc4)[C@H]21)C3(C)C` [Docetaxel]: the “stability in high temperature” value in data set [3] is given as “bad”. Also, in data set [4] (one research report), the “CR (Complete Resultful)” value was 4%. For the same compound, in data set [4] (phase II clinical trial, patients who have received chemotherapy, generally 100 mgs/m^2, infusion, once per 3 weeks), the “total chemotherapy efficiency of single Docetaxel” value is on record as 47%. The “purity on exposure in light” value in data set [5] was “purity dropped”.
